“Also recorded” adds a separate entry of the source.
Experiments:
[1] = in vivo; stated for o-vanillin, reported previously for its isomer vanillin (Beaudry 2010); cited from earlier work
TLR2/1 = TLR2/1 (Mus musculus, UniProt Q9QUN7); test: P3C-induced inflammation in vivo in C57BL/6J mice; design: tissue The Jackson Laboratory; host or cells: whole animal; liver RNA and serum analysed; conditions: C29L i.p. 1.314 mM/g twice, P3C 100 μg i.p.
Procedure: FIG. 4. C29L inhibits TLR2/1-induced inflammation in vivo. C57BL/6J mice were pretreated i.p. with vehicle (water) or C29L (1.314 mM/g) for 1 hr. Mice received a second pretreatment i.p. with vehicle (water) or C29L (1.314 mM/g) and subsequently were challenged i.p. with PBS or P3C (100 μg) and sacrificed 1 hr or 3 hrs later. Liver RNA (A) was analyzed by qRT-PCR and serum concentrations (B) were analyzed by Multiplex (*, p≤0.05; ***, p≤0.001; ****, p≤0.0001). Panels A and B, n=6 (the combined data from two separate experiments) for each treatment group.
All animal studies were carried out with institutional approval. Female C57BL/6J mice (6-8 weeks old) were purchased from The Jackson Laboratory (Bar Harbor, ME) and (n=3 mice/group) received PBS, H2O, or C29L (in H2O) i.p. (1.314 mM/g). After 1 h, mice received a second injection of PBS, H2O, or C29L i.p. (1.314 mM/g) and were subsequently challenged i.p. with PBS or P3C (100 μg) for 1 or 3 h. Mice were bled and sera was prepared. Livers were also extracted for qRT-PCR analysis.

TLR2 [2] = molecular target: TLR2 (Mus musculus, UniProt Q9QUN7); test: Cytokine mRNA in murine peritoneal macrophages (PEC) stimulated with bacterial TLR2 agonists; format: cell-based; conditions: C29 50 μM
TLR2 (Mus musculus, UniProt Q9QUN7), sequence (Q9QUN7 25-784): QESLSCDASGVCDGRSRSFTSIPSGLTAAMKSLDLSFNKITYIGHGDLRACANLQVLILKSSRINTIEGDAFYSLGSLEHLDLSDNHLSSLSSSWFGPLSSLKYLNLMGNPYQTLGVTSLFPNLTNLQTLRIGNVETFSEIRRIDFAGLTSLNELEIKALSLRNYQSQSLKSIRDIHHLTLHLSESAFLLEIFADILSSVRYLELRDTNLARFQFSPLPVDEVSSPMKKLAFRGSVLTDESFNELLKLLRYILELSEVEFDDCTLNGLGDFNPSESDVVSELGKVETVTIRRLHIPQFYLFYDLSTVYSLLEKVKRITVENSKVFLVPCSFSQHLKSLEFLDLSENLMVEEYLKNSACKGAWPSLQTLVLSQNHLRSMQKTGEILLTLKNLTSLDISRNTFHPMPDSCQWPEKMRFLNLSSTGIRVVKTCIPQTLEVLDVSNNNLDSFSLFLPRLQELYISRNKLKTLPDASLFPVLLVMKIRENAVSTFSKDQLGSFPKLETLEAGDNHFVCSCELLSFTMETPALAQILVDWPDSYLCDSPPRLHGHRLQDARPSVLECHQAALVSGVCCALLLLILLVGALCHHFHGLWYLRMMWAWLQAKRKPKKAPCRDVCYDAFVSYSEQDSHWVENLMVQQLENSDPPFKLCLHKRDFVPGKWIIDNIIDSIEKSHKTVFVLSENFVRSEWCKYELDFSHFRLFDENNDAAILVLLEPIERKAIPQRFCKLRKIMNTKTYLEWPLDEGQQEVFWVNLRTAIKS

TLR2 [3] = molecular target: TLR2 (Homo sapiens, UniProt O60603); format: cell-based; conditions: HEK-TLR2 cells, C29 50 μM
TLR2 (Homo sapiens, UniProt O60603), sequence (O60603 21-784 limits assumed): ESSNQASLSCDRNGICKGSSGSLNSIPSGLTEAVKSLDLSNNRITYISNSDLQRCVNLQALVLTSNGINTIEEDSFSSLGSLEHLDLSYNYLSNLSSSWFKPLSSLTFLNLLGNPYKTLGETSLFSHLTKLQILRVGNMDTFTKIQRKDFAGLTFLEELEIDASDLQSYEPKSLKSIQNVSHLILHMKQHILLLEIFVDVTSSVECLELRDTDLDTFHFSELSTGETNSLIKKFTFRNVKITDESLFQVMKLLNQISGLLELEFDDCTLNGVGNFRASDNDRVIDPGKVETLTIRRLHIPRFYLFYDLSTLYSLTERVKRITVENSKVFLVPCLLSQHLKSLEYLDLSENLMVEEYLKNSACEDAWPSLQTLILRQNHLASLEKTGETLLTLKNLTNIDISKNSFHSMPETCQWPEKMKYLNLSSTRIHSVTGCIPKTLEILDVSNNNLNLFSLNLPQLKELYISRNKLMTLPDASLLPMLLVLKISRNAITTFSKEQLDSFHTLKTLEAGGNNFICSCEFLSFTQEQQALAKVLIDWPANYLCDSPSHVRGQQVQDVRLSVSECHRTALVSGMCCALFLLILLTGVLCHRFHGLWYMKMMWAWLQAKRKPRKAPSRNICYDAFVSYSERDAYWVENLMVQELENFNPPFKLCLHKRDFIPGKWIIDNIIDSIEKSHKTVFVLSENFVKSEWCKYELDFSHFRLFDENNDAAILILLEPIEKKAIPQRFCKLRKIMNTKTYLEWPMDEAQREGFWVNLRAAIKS

TLR2/6 = TLR2/6 (Homo sapiens, UniProt O60603); test: P2C-induced IL-8 mRNA (qRT-PCR) in HEK-TLR2 stable transfectants; format: cell-based; design: expressed in transfected cells
TLR2/6, sequence (O60603 21-784): as the sequence (O60603 21-784 limits assumed) above

[4] = system: MyD88-independent pathway; test: IFN-β mRNA in murine macrophages stimulated with agonists that induce IFN-β; format: cell-based; conditions: C29 50 μM, 3 hrs
Procedure: FIG. 10. Examining the broader specificity of C29 for TLR2 signaling. (A, B) Total RNA was extracted from murine macrophages that had been pretreated for 1 hr with vehicle (65 μM NaOH) or C29 (50 μM) and then stimulated with P3C (50 ng/mL), P2C (100 ng/mL), zymosan (10 μg/mL), S. aureus LTA (1 μg/mL), poly(I:C) (10 μg/mL), LPS (100 ng/mL), R848 (10 μg/mL), or CpG ODN 1668 (5 μM) for 3 hrs in the presence of vehicle or C29. IL-1β and IFN-β mRNA were measured as described in FIG. 1, panel D. (C) THP-1 cells were plated in the presence of PMA (20 ng/mL) for 24 hrs and washed twice in media. Total RNA was extracted from cell cultures pretreated for 1 hr with vehicle (260 μM NaOH) or C29 (50 μM, 100 μM, or 200 μM) and then stimulated with zymosan (10 μg/mL) or S. aureus LTA (1 μg/mL) for 4 hrs in the presence of vehicle or C29. IL-1β mRNA was measured as described in FIG. 1, panel B. Quantitative real-time results represent the mean±SEM from 2 independent experiments each carried out in duplicate (*, p≤0.05; **, p≤0.01; ***, p≤0.001).
Cytokine gene expression was measured by qRT-PCR with transcript-specific primers using SYBR Green in the ABI Prism 7900 Fast Real Time PCR system (Applied Biosystems, Foster City, CA) as described (Cole L E, et al. (2006) Journal of immunology 176(11):6888-6899). […]

[5] = system: HEK-TLR2 stable transfectants; test: LDH release cytotoxicity assay; format: cell-based, human; conditions: C29 10 μM or 50 μM
Procedure: FIG. 7. C29 is not cytotoxic to HEK-TLR2 stable transfectants. Cells were pretreated for 1 hr with media, vehicle (65 μM NaOH), or C29 (10 μM or 50 μM) and then stimulated with P3C (200 ng/mL), P2C (200 ng/mL), or hTNF-α (300 ng/mL) for 1 hr in the presence of media, vehicle, or C29. Supernatants of cell cultures were collected and analyzed for LDH release as a measure of cell cytotoxicity with Triton X-lysed cells serving as the positive control. LDH release is representative of 1 of 2 independent experiments carried out in duplicate.
Cellular cytotoxicity was determined by measuring lactate dehydrogenase (LDH) activity released in the media after treatment with TLR agonist or TNF-α in the presence of media, vehicle (NaOH), or C29 using the CytoTox 96 nonradioactive cytotoxicity assay (Promega, Madison, WI) and quantified by measuring wavelength absorbance at 490 nm. Treatment of cells with Triton X-100 served as the positive control.

[6] = murine macrophages, MOI=0.7, 4 hrs
[7] = primary murine macrophages (PEC), MOI=50, 4 hrs

TLR2/1, sequence (Q9QUN7 25-784): as the sequence (Q9QUN7 25-784) above

COc1cccc(C=O)c1O [Compound C29L, ortho-vanillin]
bioavailability [1]: poor bioavailability
P3C-induced IL-12 p40 liver cytokine mRNA (TLR2/1; 1 or 3 hrs): significantly blocked
P3C-induced IL-12 p40 serum protein (TLR2/1; 1 or 3 hrs): significantly blocked
P3C-induced TNF-α liver cytokine mRNA (TLR2/1; 1 or 3 hrs): significantly blocked
P3C-induced TNF-α serum protein (TLR2/1; 1 or 3 hrs): significantly blocked
P3C-induced IL-12 p40 at the later time point (TLR2/1; 3 hrs): significant inhibitory effect

COc1cccc(/C=N/c2cccc(C(=O)O)c2C)c1O [Compound C29]
live S. pneumoniae-induced IL-1β mRNA (TLR2 [2]; [6]): inhibited
live S. pneumoniae-induced IL-12 p40 mRNA (TLR2 [2]; [6]): inhibited
HKSA-mediated IL-1β mRNA (TLR2 [2]; [7]): significantly blocked
heat-killed S. pneumoniae (HKSP)-mediated IL-1β mRNA (TLR2 [2]; [7]): significantly blocked
live F. tularensis-induced IL-8 mRNA (TLR2 [3]; LVS MOI=10, 4 hrs, TLR2/6 agonist): significantly inhibited
heat-killed Ps. aeruginosa (HKPA)-induced IL-8 mRNA (TLR2 [3]; MOI=50, 4 hrs): significantly inhibited
heat-killed S. aureus (HKSA)-induced IL-8 mRNA (TLR2 [3]; MOI=50, 4 hrs): significantly inhibited
inhibition at 100 µM (TLR2/6; 100 μM compound, 1 hr pretreatment, P2C 5 ng/mL 1 hr, HEK-TLR2 cells, read-out: decrease of P2C-induced IL-8 mRNA): ≥ 50%
P2C-induced IL-8 mRNA (TLR2/6; C29 10 μM or 50 μM, P2C 200 ng/mL 1 hr, HEK-TLR2 stable transfectants): blocked P3C- and P2C-induced IL-8 mRNA dose-dependently
IFN-β mRNA (MyD88-independent pathway) [4]: no significant inhibitory effect
cytotoxicity (LDH release) [5]: no effect; also recorded: not cytotoxic

Source: patent publication US12653800B2, “Small molecule inhibitors of TLR2 signaling” (University of Maryland, Baltimore, priority 2015, dated 2026)
